Measurements as given in US20230181638A1, “IMMUNOGENIC PEPTIDES WITH NEW OXIDOREDUCTASE MOTIFS” (IMCYSE SA, priority 2020, published 2023).
Where a SMILES comes first, the peptide text is derived from it. Where no end group is shown, it is not given here.

Legend:
[1] = system: Experimental Auto-Immune Encephalomyelitis (EAE); assay: therapeutic administration, EAE clinical score in mice; assay type: in vivo; conditions: for mice died: therapeutic EAE study, 16 mice per group, deaths did not appear to be due to EAE
Procedure: The study used a total of 64 female C57BL/6 mice (Taconic Biosciences, 9 weeks old on Day 0). Mice were acclimated for 7 days prior to the first injection. Mice were assigned to groups in a balanced manner to achieve similar average weight across the groups at the start of the study.
Dosing of all mice was performed once on each of the days indicated in Table 6, s.c., at a volume of 0.05 mL/site, each mouse receiving injection at two sites, for a total of 0.1 mL/mouse/dosing day. IMCY-0189, IMCY-0453 or IMCY-0455 peptide total close was […] per administration.
For Saline treatment, 0.9% NaCl solution was prepared at each dosing day. Peptide's preparation was performed as described in example 3.
(§1) AUC, MMS, inflammation and demyelination, and NF-L levels quantification data were analyzed by performing Ordinary one-way ANOVA. Adjustment for multiplicity was performed using Holm-Sidak's method. Significant differences are referred as follows: *p<0.05, **p<0.01, ***p<0.001, ****p<0.0001.
EAE induction and scoring were performed as described in example 3.
EAE development was evaluated by comparing clinical EAE readouts for all groups to the negative control (Saline) group.

[2] = system: Experimental Auto-Immune Encephalomyelitis (EAE); assay: prophylactic administration, EAE clinical score in mice; assay type: in vivo, C57BL/6 mice; conditions: vs Alum control group, FIG. 2C, FIG. 4
2D2-Total CD4+ cells = assay: induction of lytic markers on CD4+ T cells after second stimulation; assay type: cell-based, 2D2 transgenic mice; conditions: 5 μM control peptide, 10-14 days after S1
Source text: 2D2 transgenic mice (Jackson Laboratory) were used as a source of CD4+ cell. […] In this study, 2D2-Total CD4+ cells were purified using manufacture instruction (Miltenyi Biotec, 130-104-454) and antigen presenting cells were splenocyte depleted for T cell repertoire (CD90.2 depletion, Miltenyi Biotec, 130-104-454) from C57BL6 mice (compatible with 2D2-transgenic mice). Control conditions for every study were either no-peptide addition or addition of IMCY-0017, IMCY-0257 or IMCY-0069 (see example 1 and table 1) which the two later, can bind to MHCII from C57BL6-APC efficiently but not activate the TCR from 2D2-transgenic CD4+ T cells. AA controls were not used.
Immunogenic peptides comprising an MCHII T cell epitope and a classical oxidoreductase motif of sequence CxxC are known from the art to induce CD4+ cells with lytic markers called cytolytic CD4+ cells (cCD4+). Therefore, it was attempted to determine whether the peptide variants of the present invention would lead to earlier and/or stronger (percentage or intensity) lytic properties in activated Ag-specific CD4 T cells. […] The FACS results were then determined for all variants of IMCY-0189 and the measurement for the wild type peptide (IMCY-0017) was removed from all the other measurements to determine purely the effect of every modified oxidoreductase motif on the induction of lytic properties.

[3] = system: Experimental Auto-Immune Encephalomyelitis (EAE); assay: therapeutic EAE study, spinal cord histology (H&E, anti-MBP); assay type: in vivo, C57BL/6 mice; conditions: spinal cord sections at end of study, vs Saline control
Procedure: At the end of the study, all mice were euthanized, and spines were collected and placed in 10% buffered formalin for histological analysis.
For each spine, one H&E stained slide and one anti-MBP stained slide were prepared and analyzed. Each slide contained a section with samples from lumbar, thoracic and cervical of spinal cord (3 samples). All analysis was performed by a pathologist blinded to the experimental groups and all clinical readouts.
Inflammatory foci of approximately 20 cells were counted in each H&E stained section. When inflammatory infiltrates consisted of more than 20 cells, an estimate was made of how many foci of 20 cells were present.
Demyelination was scored in each anti-MBP (using immunohistochemistry) stained section. In anti-MBP sections, demyelination is observed as conspicuous unstained areas in white matter tracts and is associated with presence of large vacuoles. […]
AUC, MMS, inflammation and demyelination, and NF-L levels quantification data were analyzed by performing Ordinary one-way ANOVA. […]
Histological readouts were evaluated by comparing inflammation and demyelination levels for all groups to the negative control (Saline) group.

[4] = system: Neurofilament light (NF-L) protein; assay: therapeutic EAE study, serum neurofilament levels (Simoa NF-light); assay type: in vivo, C57BL/6 mice; conditions: serum on Day 28, vs Saline negative control, FIG. 10
Procedure: On Day 28, blood was collected from all mice into gel dot activator tubes and allowed to dot at room temperature for ˜30 minutes. Blood is then centrifuged at ˜10000 g for 5 minutes. Serum was transferred into Eppendorf tubes and stored at −80° C. until shipment to Quanterix™. Serum Neurofilament light (NF-L) protein levels were quantified using Simoa® NF-light Advantage kit, a digital immunoassay for the quantitative determination of NF-L in serum, plasma and CSF. The used antibodies (Uman Diagnostics, Umeå Sweden) also cross react with murine, bovine and macaque NF-L epitopes and as such, this assay can be used for research with these species. All samples were tested in duplicate at a dilution factor of 40×.
as §1
Axonal damage was also evaluated by comparing NF-L levels for all groups to the negative control (Saline) group.

[5] = therapeutic, 30 μg s.c. with Alum on Days 4, 9, 14, 19, vs Saline negative control

CC(C)C[C@H](NC(=O)[C@H](Cc1c[nH]cn1)NC(=O)[C@@H](NC(=O)[C@@H](NC(=O)[C@H](CCCNC(=N)N)NC(=O)[C@H](CO)NC(=O)[C@H](Cc1ccccc1)NC(=O)[C@@H]1CCCN1C(=O)[C@H](CO)NC(=O)[C@H](CCCNC(=N)N)NC(=O)[C@H](Cc1ccc(O)cc1)NC(=O)[C@H](Cc1c[nH]c2ccccc12)NC(=O)CNC(=O)[C@H](CS)NC(=O)[C@H](Cc1ccc(O)cc1)NC(=O)[C@@H]1CCCN1C(=O)[C@H](CS)NC(=O)[C@@H](N)Cc1c[nH]cn1)C(C)C)C(C)C)C(=O)N[C@@H](Cc1ccc(O)cc1)C(=O)N[C@@H](CCCNC(=N)N)C(N)=O [IMCY-0189, HCPYC-GWYRSPFSRVVHLYR-NH2, reference compound] (H-HCPYCGWYRSPFSRVVHLYR-NH2)
mice died [1]: No mice died

CC(C)C[C@H](NC(=O)[C@H](Cc1c[nH]cn1)NC(=O)[C@@H](NC(=O)[C@@H](NC(=O)[C@H](CCCNC(=N)N)NC(=O)[C@H](CO)NC(=O)[C@H](Cc1ccccc1)NC(=O)[C@@H]1CCCN1C(=O)[C@H](CO)NC(=O)[C@H](CCCNC(=N)N)NC(=O)[C@H](Cc1ccc(O)cc1)NC(=O)[C@H](Cc1c[nH]c2ccccc12)NC(=O)CNC(=O)[C@H](CS)NC(=O)[C@H](CCCNC(=N)N)NC(=O)[C@H](CS)NC(=O)[C@@H](N)CCCCN)C(C)C)C(C)C)C(=O)N[C@@H](Cc1ccc(O)cc1)C(=O)N[C@@H](CCCNC(=N)N)C(N)=O [IMCY-0453, KCRC-GWYRSPFSRVVHLYR-NH2] (H-KCRCGWYRSPFSRVVHLYR-NH2)
mice died [1]: 1

CPYC-GWYRSPFSRVVHLYR-NH2 (CPYCGWYRSPFSRVVHLYR-NH2; cysteine pairing not given here) [IMCY-0443]
reduction of the peak of the disease or MMS [2]: not observed

HCPYC-LALWEPKPTQAFVK-NH2 (HCPYCLALWEPKPTQAFVK-NH2; cysteine pairing not given here) [IMCY-0069]
survival of the cell culture up to second stimulation (2D2-Total CD4+ cells): did not survive in the cell culture

HCPYC-NGGFNSNRANSSRSS-NH2 (HCPYCNGGFNSNRANSSRSS-NH2; cysteine pairing not given here) [IMCY-0257]
survival of the cell culture up to second stimulation (2D2-Total CD4+ cells): did not survive in the cell culture

KCRPYC-GWYRSPFSRVVHLYR-NH2 (KCRPYCGWYRSPFSRVVHLYR-NH2; cysteine pairing not given here) [IMCY-0455, KCRPYC motif variant of IMCY-0189]
mice died [1]: 1 | all clinical readouts (disease onset, end score, AUC and MMS) as compared to IMCY-0189 ([1]; therapeutic, 30 μg s.c. with Alum on Days 4, 9, 14, 19, vs IMCY-0189 group): statistically significantly improved | disease onset [1, 5]: statistically significantly improved | end score [1, 5]: statistically significantly improved | AUC of EAE scores ([1]; therapeutic, 30 μg s.c. with Alum on Days 4, 9, 14, 19, vs Saline negative control, FIG. 6): statistically significantly improved | MMS of EAE scores ([1]; therapeutic, 30 μg s.c. with Alum on Days 4, 9, 14, 19, vs Saline negative control, FIG. 7): statistically significantly improved | level of inflammation (inflammatory foci, H&E) ([3]; FIG. 8): statistically significant reduced level | level of demyelination (anti-MBP score) ([3]; FIG. 9): statistically significant reduced level | serum NF-L levels [4]: statistically significant reduced
